Data taken from a compilation of properties of binary mixtures (doi:10.1016/j.molliq.2017.08.014).

Test: xn = mol fraction of the nth substance listed
Settings: 101 kPa

CCOC(C)=O + CCCCn1cc[n+](C)c1.Cl[Fe-](Cl)(Cl)Cl
x2 = 0
Settings | viscosity [mPa·s]
293.15 K | 0.46
298.15 K | 0.43
303.15 K | 0.41
308.15 K | 0.39
313.15 K | 0.37
318.15 K | 0.35
323.15 K | 0.33

CCCCn1cc[n+](C)c1.[Cl][Fe-]([Cl])([Cl])[Cl] + CCOC(C)=O
viscosity [mPa·s]
Settings | x1 = 0.1002 | x1 = 0.1999 | x1 = 0.3007 | x1 = 0.3999 | x1 = 0.5 | x1 = 0.6001 | x1 = 0.7 | x1 = 0.7973 | x1 = 0.9 | x1 = 1
293.15 K | 1.17 | 2.37 | 4.32 | 7.33 | 11.15 | – | 22.98 | 30.8 | 41.3 | 56.6
298.15 K | 1.09 | 2.19 | 3.92 | 6.53 | 9.78 | 14.09 | 19.72 | – | – | 46
303.15 K | 1.02 | 2.01 | 3.56 | 5.84 | 8.64 | – | 16.92 | – | 28.7 | 37.9
308.15 K | 0.97 | – | 3.26 | – | 7.69 | – | 14.65 | – | 24.4 | –
313.15 K | 0.91 | – | 2.99 | 4.76 | 6.88 | 9.63 | 12.81 | – | 21.04 | 27
318.15 K | 0.86 | 1.66 | – | – | 6.19 | 8.65 | 11.32 | 14.58 | – | 23.24
323.15 K | 0.82 | 1.57 | 2.56 | 3.98 | 5.63 | 7.79 | 10.08 | 12.88 | 16.08 | 20.16
